Measurements: ChEMBL document CHEMBL1201862, “PubChem BioAssay data set” (2004)
The source made the active and inactive calls.

Legend:
[1] = biological target: Nuclear receptor subfamily 5 group A member 2 (Homo sapiens, UniProt O00482); type: functional, cell-based;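 further: HEK293T cells transfected with LRH-1 and a StAR promoter luciferase reporter; potency for inhibitors that lower LRH-1 driven reporter light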
[2] = nonselective StAR promoter luciferase inhibitors – cell-based, luminescence, luciferase reporter, counter-screen for LRH-1 inverse agonist project, dose response (AID 651969); type: functional
Steroidogenic factor 1 = Steroidogenic factor 1 (Homo sapiens, UniProt Q13285); test: Counterscreen for inverse agonists of the liver receptor homolog-1 (LRH-1; NR5A2): Luminescence-based cell-based high throughput dose response assay to identify inverse agonists of the Steroidogenic Factor 1 Nuclear Receptor (SF1; NR5A1).; type: functional
Sequence of Steroidogenic factor 1 (Q13285 whole entry): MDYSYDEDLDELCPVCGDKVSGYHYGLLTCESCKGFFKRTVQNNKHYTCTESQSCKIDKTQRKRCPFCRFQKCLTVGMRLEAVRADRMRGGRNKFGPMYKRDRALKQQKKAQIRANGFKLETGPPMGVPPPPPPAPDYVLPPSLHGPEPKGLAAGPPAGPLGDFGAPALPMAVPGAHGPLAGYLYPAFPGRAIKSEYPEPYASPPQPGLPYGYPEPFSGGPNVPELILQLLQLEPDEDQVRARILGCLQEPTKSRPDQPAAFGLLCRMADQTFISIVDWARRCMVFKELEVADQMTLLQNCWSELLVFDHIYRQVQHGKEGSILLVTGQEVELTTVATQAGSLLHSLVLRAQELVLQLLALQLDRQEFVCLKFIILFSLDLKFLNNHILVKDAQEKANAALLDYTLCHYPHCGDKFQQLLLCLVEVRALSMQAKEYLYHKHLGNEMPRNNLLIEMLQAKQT

INS1 = test: INS-1E survival protection against cytokine death – cell-based, luminescence, retest, dose response (AID 449756); type: functional; conditions: Rattus norvegicus;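 further: cell death triggered by IL-1 beta plus TNF-alpha plus IFN-gamma mixture; protective hits raise ATP signal compared with cytokine alone wells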
Protein Wnt-3a = Protein Wnt-3a (Mus musculus, UniProt P27467); test: antagonism of Wnt3a pathway luciferase reporter – Wnt-LIGHT cells, luminescence, selectivity assay for Gli-SUFU antagonist project, dose response (AID 651570); type: functional; conditions: read-out: IC50_Mean;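 further: Wnt-LIGHT reporter cells stimulated with conditioned medium from Wnt3a-producing cells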
Sequence of Protein Wnt-3a (P27467 whole entry): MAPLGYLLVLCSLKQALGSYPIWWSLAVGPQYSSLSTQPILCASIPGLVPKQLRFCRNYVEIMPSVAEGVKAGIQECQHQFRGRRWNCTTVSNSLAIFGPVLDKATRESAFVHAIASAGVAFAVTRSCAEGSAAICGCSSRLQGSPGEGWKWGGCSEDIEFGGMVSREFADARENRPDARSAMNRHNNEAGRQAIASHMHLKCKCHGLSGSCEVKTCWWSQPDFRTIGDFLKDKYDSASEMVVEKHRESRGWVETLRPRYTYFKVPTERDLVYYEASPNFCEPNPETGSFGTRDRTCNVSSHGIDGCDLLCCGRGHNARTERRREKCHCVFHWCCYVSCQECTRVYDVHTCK

[3] = HEK-293T viability loss after treatment – luminescence, T-cell screen hits, cytotoxicity control for TCR NF-kB inhibitor project, dose response (AID 489026); type: functional, cell-based;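 further: cells exposed to compound about 14 hours before the viability readout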
[4] = HepG2 cell cytotoxicity, dose response, cytotoxicity control for non-replicating M. tuberculosis project (AID 489018); type: functional; conditions: Mycobacterium tuberculosis
[5] = Vero E6 cell cytotoxicity, dose response, cytotoxicity control for non-replicating M. tuberculosis project, secondary assay (AID 492998); type: functional, VeroE6; conditions: Vero C1008
[6] = THP-1 cell cytotoxicity, dose response, cytotoxicity control for non-replicating M. tuberculosis project (AID 489025); type: functional
cells = type: functional
[7] = bead-based luminescence quenchers, dual-tagged ARNT – biochemical, AlphaScreen, cherry-pick, artefact control for ARNT-TACC3 interaction inhibitor project, dose response (AID 651705); type: functional;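 further: AlphaScreen bead proximity signal that flags compounds interfering with the detection technology; potency reflects signal decrease which marks the compound as an assay artifact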
Nonstructural protein 1 = Nonstructural protein 1 (Influenza A virus, UniProt Q194T2); type: functional, Influenza A virus (A/California/07/2009(H1N1))
Sequence of Nonstructural protein 1 (Q194T2 whole entry): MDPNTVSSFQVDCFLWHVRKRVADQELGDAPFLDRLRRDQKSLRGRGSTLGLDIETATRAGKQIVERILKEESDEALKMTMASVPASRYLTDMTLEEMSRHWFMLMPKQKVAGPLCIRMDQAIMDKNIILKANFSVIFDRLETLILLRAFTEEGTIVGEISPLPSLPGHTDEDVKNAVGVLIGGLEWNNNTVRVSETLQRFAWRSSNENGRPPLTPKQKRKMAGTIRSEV

H9c2 = test: cells; type: functional, cell-based; conditions: Rattus norvegicus, H9c2, Myocardium;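 further: confirmatory concentration-response retest of ultra-high-throughput screening hits for modulation of myocardial damage; cell death induced by hydrogen peroxide oxidative stress; compound pretreatment for 60 min then peroxide exposure for 2 h; potency is for protecting the cells against peroxide damage rather than for killing them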
[8] = biological target: T1, High affinity choline transporter 1 (Homo sapiens, UniProt Q9GZV3); test: human choline transporter blockers, potency – cell-based, 10-point CRC, membrane potential dye, dose response (AID 588401); type: functional;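 further: membrane potential dye fluorescence of choline-evoked depolarization via CHT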
T1 sequence (Q9GZV3 whole entry): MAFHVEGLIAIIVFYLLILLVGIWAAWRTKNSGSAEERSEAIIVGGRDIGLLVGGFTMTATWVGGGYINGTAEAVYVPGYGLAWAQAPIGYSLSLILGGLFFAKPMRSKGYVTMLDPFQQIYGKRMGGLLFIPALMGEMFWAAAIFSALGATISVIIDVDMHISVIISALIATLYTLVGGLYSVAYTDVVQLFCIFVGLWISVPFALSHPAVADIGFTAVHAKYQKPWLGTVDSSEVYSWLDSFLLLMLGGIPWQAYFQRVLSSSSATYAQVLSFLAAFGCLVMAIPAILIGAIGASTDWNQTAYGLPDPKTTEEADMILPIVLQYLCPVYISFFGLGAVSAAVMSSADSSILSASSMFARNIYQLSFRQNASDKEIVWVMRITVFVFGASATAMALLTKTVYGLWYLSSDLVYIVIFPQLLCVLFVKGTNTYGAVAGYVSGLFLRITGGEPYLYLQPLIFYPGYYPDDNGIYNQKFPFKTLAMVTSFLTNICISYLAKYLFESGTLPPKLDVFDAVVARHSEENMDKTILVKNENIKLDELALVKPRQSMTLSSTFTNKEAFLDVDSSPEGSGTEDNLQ

[9] = biological target: T1, High affinity choline transporter 1; test: human choline transporter blockers, potency – cell-based, 5-point CRC, membrane potential dye, dose response (AID 504840); type: functional
[10] = biological target: T2, Polyadenylate-binding protein 1 (Homo sapiens, UniProt P11940); test: MLLE domain peptide-binding blockers, IC50 – biochemical, fluorescence polarization, FITC-PAM2 peptide, dose response (AID 602259); type: functional; conditions: read-out: IC50_Mean
T2 sequence (P11940 whole entry, the tested form may be a part): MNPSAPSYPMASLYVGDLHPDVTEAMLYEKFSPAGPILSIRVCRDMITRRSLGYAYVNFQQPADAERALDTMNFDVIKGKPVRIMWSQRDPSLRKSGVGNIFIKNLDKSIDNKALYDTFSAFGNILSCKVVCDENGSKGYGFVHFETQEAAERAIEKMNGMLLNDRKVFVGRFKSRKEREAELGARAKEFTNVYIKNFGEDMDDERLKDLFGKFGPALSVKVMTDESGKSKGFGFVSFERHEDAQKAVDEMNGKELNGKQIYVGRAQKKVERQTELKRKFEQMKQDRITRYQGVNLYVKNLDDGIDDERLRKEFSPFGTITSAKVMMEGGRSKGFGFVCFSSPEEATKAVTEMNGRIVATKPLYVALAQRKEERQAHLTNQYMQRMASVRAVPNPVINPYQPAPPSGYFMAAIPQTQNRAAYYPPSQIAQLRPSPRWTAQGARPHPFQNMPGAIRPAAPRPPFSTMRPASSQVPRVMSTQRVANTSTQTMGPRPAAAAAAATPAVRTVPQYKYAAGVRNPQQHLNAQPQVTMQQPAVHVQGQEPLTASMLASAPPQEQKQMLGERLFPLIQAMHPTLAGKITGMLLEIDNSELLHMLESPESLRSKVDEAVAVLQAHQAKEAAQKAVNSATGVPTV

Melanocortin receptor 4 = Melanocortin receptor 4 (Homo sapiens, UniProt P32245); type: functional, cell-based;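 further: Cell-based assay with luminescence read-out, confirmatory dose-response testing for agonist activity of biased ligands at MC4R; human U2OS cells with tagged receptor and beta-arrestin; potency of agonists that increase receptor coupling to beta-arrestin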
Sequence of Melanocortin receptor 4 (P32245 whole entry): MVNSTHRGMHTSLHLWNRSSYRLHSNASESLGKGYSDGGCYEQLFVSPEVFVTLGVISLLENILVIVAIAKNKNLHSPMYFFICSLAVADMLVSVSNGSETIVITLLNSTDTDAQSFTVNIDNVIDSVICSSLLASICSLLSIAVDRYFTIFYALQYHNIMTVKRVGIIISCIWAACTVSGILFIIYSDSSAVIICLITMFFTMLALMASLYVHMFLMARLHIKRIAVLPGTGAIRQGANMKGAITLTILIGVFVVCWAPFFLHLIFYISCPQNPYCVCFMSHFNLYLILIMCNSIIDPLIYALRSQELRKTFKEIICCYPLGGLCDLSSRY

[11] = biological target: T2, Polyadenylate-binding protein 1; test: MLLE binding blockers, Cy5 peptide tracer – biochemical, fluorescence polarization, Cy5-PAM2 peptide, secondary, miRNA deadenylation inhibitor project, dose response (AID 602260); type: functional; conditions: read-out: IC50_Mean
[12] = fluconazole-exposed Candida albicans growth modulators – fluorescence, retest, confirmation (AID 2467); type: functional, cell-based
Aminopeptidase N = biological target: T3, Aminopeptidase N (Plasmodium falciparum FcB1/Columbia, UniProt O96935); test: malaria alanyl aminopeptidase activity blockers – biochemical, fluorogenic H-Leu-NHMec substrate, 1536-well (AID 1445); design: species or system Plasmodium falciparum 3D7, 3D7
T3 sequence (O96935 whole entry): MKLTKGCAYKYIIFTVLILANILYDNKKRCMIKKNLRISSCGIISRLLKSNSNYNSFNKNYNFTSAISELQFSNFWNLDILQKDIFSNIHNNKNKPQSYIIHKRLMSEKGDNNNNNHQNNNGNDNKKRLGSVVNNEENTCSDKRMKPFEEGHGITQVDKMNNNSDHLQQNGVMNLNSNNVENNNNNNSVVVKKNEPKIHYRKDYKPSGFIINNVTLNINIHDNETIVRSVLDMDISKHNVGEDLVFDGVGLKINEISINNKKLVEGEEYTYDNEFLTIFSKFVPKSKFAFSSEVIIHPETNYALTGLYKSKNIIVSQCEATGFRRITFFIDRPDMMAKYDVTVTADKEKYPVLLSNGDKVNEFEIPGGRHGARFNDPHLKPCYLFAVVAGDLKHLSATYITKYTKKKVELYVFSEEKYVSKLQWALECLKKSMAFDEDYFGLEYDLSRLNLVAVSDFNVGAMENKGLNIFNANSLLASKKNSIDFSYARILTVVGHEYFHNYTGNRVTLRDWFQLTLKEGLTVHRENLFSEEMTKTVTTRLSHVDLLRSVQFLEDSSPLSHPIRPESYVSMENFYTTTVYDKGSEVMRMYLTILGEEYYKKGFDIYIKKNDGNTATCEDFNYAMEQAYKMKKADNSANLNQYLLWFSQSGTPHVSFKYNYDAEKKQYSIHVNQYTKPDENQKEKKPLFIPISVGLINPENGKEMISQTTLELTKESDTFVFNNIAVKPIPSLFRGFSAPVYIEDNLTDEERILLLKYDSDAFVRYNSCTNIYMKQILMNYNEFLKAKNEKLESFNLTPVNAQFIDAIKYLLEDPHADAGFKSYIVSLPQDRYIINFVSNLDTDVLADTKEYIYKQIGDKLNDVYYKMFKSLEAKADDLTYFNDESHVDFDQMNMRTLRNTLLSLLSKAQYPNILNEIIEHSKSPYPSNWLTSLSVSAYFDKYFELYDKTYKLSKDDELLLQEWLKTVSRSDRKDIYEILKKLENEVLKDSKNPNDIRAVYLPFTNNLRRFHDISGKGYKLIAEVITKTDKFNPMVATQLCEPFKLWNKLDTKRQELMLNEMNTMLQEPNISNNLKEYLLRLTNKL

[13] = biological target: Dual specificity tyrosine-phosphorylation-regulated kinase 1A (Rattus norvegicus, UniProt Q63470); type: biochemical, Homo sapiens
[14] = biological target: T4, Short transient receptor potential channel 4 (Mus musculus, UniProt Q9QUQ5); test: block of DAMGO-driven TRPC4 calcium entry – cell-based, HEK293 TRPC4/mu-opioid, Fluo-4 calcium, dose response (AID 434942); type: functional;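 further: potency of inhibitors blocking the TRPC4 calcium response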
T4 sequence (Q9QUQ5 whole entry): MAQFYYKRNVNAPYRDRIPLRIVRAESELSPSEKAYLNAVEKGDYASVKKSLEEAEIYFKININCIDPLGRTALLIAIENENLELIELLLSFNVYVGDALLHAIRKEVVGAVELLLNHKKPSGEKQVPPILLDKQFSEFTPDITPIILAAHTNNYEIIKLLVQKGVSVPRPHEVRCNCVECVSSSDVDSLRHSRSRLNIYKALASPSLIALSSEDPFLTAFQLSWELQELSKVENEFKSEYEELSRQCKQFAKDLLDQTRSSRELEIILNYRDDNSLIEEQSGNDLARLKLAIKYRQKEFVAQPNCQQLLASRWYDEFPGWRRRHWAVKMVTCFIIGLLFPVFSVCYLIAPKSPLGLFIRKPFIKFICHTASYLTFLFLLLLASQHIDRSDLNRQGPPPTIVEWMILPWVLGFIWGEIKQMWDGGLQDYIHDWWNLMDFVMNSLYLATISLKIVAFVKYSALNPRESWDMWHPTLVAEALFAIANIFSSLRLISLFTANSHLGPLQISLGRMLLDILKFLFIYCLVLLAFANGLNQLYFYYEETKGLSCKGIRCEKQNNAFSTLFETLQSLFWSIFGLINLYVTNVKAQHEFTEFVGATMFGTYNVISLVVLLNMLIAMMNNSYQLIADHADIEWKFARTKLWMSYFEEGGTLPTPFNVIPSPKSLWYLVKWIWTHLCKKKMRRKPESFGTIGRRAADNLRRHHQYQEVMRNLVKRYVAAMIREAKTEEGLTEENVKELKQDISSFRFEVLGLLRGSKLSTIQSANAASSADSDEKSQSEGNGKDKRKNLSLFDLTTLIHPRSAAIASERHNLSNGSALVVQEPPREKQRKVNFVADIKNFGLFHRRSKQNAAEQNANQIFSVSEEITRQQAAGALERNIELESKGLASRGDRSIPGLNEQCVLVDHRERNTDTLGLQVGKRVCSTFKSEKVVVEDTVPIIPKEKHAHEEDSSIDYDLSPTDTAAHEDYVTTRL

[15] = NIH-3T3 fibroblast cytotoxicity, dose response, cytotoxicity control, cell-based, fluorescence, Alamar Blue, secondary assay (AID 2327); type: functional;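 further: NIH-3T3 mouse fibroblasts cultured with fluconazole at 8 µg/mL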

Sequence of Nuclear receptor subfamily 5 group A member 2 (O00482 whole entry): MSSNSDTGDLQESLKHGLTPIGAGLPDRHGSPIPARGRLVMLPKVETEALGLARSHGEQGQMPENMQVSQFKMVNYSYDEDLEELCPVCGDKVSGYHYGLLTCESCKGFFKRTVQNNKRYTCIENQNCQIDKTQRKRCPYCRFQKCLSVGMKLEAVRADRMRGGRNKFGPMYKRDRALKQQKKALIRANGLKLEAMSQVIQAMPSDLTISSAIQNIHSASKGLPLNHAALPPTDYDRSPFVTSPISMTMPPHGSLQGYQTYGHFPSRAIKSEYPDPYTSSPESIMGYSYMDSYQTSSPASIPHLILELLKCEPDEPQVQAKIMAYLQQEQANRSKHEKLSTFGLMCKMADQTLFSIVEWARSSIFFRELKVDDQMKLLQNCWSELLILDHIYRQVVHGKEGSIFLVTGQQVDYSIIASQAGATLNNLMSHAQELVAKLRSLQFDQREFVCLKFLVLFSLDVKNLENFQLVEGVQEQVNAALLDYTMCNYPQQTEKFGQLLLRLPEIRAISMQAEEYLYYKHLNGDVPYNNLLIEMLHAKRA

COc1cc(C(=O)Nc2ccccc2C2COC(=O)C2=N)cc(OC)c1OC (stereo not drawn)
IC50 [1]: 8.25 µM (active) | IC50 [2]: 35.9 µM (inactive) | IC50 (Steroidogenic factor 1): 4.53 µM (active)

CC(=O)c1c(C)[nH]c(C(=O)OCC(=O)Nc2ccc(C)cc2[N+](=O)[O-])c1C
AC50 (INS1): 1.12 µM (active) | IC50 (Protein Wnt-3a): 0.245 µM (active) | IC50 [3]: > 80 µM (inactive)

O=C(CCS(=O)(=O)c1ccccc1)Nc1nc(-c2ccccn2)cs1
CC50 [4]: > 20 µM (active) | CC50 [5]: 10.6 µM (active) | CC50 [6]: 22.5 µM (active) | IC50 (cells): 4.53 µM (active) | AC50 [7]: 118 µM (active) | IC50 (Nonstructural protein 1): 15.7 µM (active) | IC50 (H9c2): 35.8 µM (inactive)

Cc1ccc[n+](CC(=O)c2ccc(Cl)cc2)c1
IC50 [8]: 0.946 µM (active) | IC50 [9]: 1.82 µM (active)

CC(=O)Nc1cc(-c2ccccc2N(C)C)cn2c(-c3ccc(F)c(Cl)c3)cnc12
IC50 [10]: > 66 µM (inactive) | EC50 (Melanocortin receptor 4): > 89.2 µM (inactive) | IC50 [11]: > 66 µM (inactive)

COc1ccc(-c2cc(NC=O)c3ncc(-c4ccccc4)n3c2)cc1OC
EC50 (Melanocortin receptor 4): > 89.2 µM (inactive) | IC50 (H9c2): > 79 µM (inactive)

N#C/C(=N\Nc1cccc([N+](=O)[O-])c1)C(=O)c1ccc(Br)cc1
AC50 (INS1): 6.82 µM (active) | EC50 [12]: 4.48 µM (active) | IC50 (Aminopeptidase N): 40.5 µM (active) | AC50 [13]: 2.91 µM (active) | EC50 [14]: 3.35 µM (active) | EC50 [15]: 56.9 µM (active) | IC50 [8]: 3.36 µM (active) | IC50 [9]: 9.02 µM (active)
